This is an account of results in patent US20140295512A1, “Ketol-Acid Reductoisomerases With Improved Performance Properties” (CALIFORNIA INSTITUTE OF TECHNOLOGY, priority 2011, published 2014).

SMILES strings stand for the structures. “And” between values parts separate entries of the source, which are not always exact repeats. Equal entries are not always repeated.

For orientation: IC50 means the concentration that inhibits the measured activity by half.

Assay [1] concerns the target E. coli KARI (Escherichia coli, UniProt P05793). Nature of the assay: KARI assay in 100-μL scale to measure IC50 in presence of R-DHIV. The class given is biochemical. The note with it: for Ki: calculated via Cheng-Prusoff equation. Here is the method:
(§1) Assay buffers were prepared containing 250 mM potassium phosphate pH 7.0, 1 mM DTT, 10 mM MgCl2, 2.5 mM acetolactate, 200 μM NADPH, and increasing concentrations of R-DHIV (0-85.5 mM (final concentrations). Ten μL purified enzyme were placed into a flat-bottom assay plate (Evergreen Scientific). The reactions were initiated by addition of 90 μL assay buffer. The change in absorbance at 340 nm was monitored over 1 min in a plate reader (TECAN).

For assay [2], the target named is Ec_ilvC^P2D1-A1. As to the kind of experiment: NKR assay in microtiter plates to measure inhibition by DHIV. It counts as biochemical, E. coli. The settings on record: 200 μM NADH, varied (S)-2-acetolactate, pH 7; read-out: K of Ec_ilvC^P2D1-A1 for DHIV (inhibition constant). How it is done:
NKR activity was assayed kinetically by monitoring the decrease in NADH concentration by measuring the absorbance at 340 nm. A reaction buffer was prepared containing 250 mM potassium phosphate pH 7, 1 mM DTT, 200 μM NADH, 2.5 mM (S)-2-acetolactate, and 10 mM MgCl2. Ten μL purified enzyme were placed into a microtiter plate. The reaction was initiated by addition of 90 μL of the reaction buffer. The kinetics with respect to substrate conversion in presence of the inhibitor were determined by varying the substrate concentration (5.1, 2.55, 1.275, 0.638, 0.319, 0.159, and 0.0799 mM), while keeping the cofactor concentration constant at 200 μM. The inhibition constant was measured by repeating these measurements with different amounts of inhibitor (0, 0.07, 0.13, 0.26, 0.51, and 1.07 mM, final concentrations).

Assay [3] deals with S. exigua KARI (Slackia exigua, UniProt D0WGK0). Nature of the assay: KARI assay in 100-μL scale to measure IC50 in presence of R-DHIV. The class given is biochemical. Here is the method:
as §1

For assay [4], the target named is L. lactis KARI (Lactococcus lactis subsp. lactis, UniProt Q02138). Described as above. The class given is biochemical. How it is done: as §1
L. lactis KARI, sequence (Q02138 whole entry): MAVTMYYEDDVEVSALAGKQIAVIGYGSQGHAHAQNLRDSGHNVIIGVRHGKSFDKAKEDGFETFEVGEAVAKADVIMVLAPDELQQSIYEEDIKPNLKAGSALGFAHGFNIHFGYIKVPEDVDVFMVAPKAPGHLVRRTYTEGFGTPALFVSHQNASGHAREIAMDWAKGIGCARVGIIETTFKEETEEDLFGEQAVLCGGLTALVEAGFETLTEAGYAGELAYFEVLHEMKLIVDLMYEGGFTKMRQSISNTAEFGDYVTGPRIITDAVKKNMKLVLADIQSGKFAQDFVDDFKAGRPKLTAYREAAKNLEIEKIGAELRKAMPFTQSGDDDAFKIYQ
[5] abbreviates: 2.5 mM acetolactate, 200 μM NADPH, pH 7.0.
Where [6] appears, read: calculated via Cheng-Prusoff equation.

S. exigua KARI, sequence (D0WGK0 whole entry): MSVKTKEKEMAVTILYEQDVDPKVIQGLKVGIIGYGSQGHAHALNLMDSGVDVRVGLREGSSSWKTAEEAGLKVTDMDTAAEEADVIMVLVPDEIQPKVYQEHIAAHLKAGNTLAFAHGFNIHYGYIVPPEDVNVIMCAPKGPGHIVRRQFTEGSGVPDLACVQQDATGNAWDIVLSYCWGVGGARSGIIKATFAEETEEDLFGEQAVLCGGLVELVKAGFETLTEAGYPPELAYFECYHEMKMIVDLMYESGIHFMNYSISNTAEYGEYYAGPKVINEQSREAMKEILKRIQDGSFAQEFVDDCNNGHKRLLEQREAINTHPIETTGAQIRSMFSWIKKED
E. coli KARI, sequence (P05793 whole entry): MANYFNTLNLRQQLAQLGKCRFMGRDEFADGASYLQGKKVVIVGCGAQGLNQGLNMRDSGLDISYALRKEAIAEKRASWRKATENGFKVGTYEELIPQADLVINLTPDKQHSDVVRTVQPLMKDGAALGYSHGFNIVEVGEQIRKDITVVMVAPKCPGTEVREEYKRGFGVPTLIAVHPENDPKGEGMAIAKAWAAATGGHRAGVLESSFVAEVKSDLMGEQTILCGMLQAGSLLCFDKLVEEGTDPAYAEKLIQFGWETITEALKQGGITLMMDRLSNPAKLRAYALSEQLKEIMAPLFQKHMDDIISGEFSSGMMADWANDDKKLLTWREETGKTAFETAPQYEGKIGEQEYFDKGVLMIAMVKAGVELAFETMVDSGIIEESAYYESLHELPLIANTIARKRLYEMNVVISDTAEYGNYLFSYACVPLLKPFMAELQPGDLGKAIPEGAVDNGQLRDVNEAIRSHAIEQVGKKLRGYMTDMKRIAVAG

As for `CC(C)(O)C(O)C(=O)O` (centres unmarked) [DHIV, 2,3-dihydroxyisovalerate], the results for the Ki in assay [1] and in assay [2] were 0.1 mM and 0.045 mM, respectively.

Consider `CC(C)(O)[C@@H](O)C(=O)O` [R-DHIV], for which the “IC50 on S. exigua KARI, times higher than IC50 of the E. coli KARI” value in assay [3] came to 27 fold. Further, in assay [3], the “IC50 on S. exigua KARI, times higher than IC50 of the L. lactis KARI” value was determined as 10 fold. Further, the “Ki on S. exigua KARI, times higher than Ki calculated for E. coli KARI” value in assay [3] is recorded as 17 fold. Besides, the IC50 in assay [3] (setting [5]) is 26.7 mM and 27 mM; in assay [4] (setting [5]), 2.5 ± 0.7 mM; in assay [1] (setting [5]), 1 mM and 1.1 mM. Further, the values for the Ki in assay [3] (setting [6]), in assay [4] (setting [6]) and in assay [1] were 1.7 mM, 1.7 mM and 0.1 mM, respectively.
